Measured values taken from publication PMC12627862, “Therapeutic targeting of endothelial calcium signaling accelerates the resolution of lung injury” (Signal Transduction and Targeted Therapy, 2025).
Read-outs that look alike come from different tables or passages of the source. Starred links: 1 amine or outer side, 2 acyl side, 3 side chain; linkers in the order of their positions; H or OH if unused. Positions of bridges follow the written chain, without caps; N, C: chain ends. Non-standard residues stand in square brackets, D forms with d. Residues, ends and D or L forms follow the SMILES beside them. ξ: configuration not given here. X2 = C[C@@](CCCCC=[*:3])(N[*:1])C(=O)[*:2]; Oic = O=C(O)[C@@H]1C[C@@H]2CCCC[C@@H]2N1; GABOB(3R) = O=C(C[C@@H](O)CN[*:1])[*:2]; d(tBuAla) = CC(C)(C)C[C@@H](N)C(=O)O; dVal(3-OH) = CC(C)(O)[C@@H](N)C(=O)O; tBuAla = CC(C)(C)C[C@H](N)C(=O)O; ξVal(3-OH) = CC(C)(O)C(N)C(=O)O; R5 = C=CCCC[C@@](C)(N)C(=O)O; X1 = O=C(CC(O)CN[*:1])[*:2]; 4Amb = NCc1ccc(C(=O)O)cc1

Columns and labels:
[1] = test system: mice challenged with a PAR-1 agonist peptide; test: PAR-1 agonist peptide-induced microvascular leakage in lung; assay type: in vivo, mouse; settings: i.v. 1 µmol/kg bw pretreatment; n = 5–7 mice per group
Procedure: The levels of EBA extravasation in the lungs of mice challenged with PAR-1 AP and treated with these compounds were similar to those observed in control mice treated with a control PAR-1 AP ([…]-NH2), in which the positions of the first two amino acids were reversed.
PAR-1 agonist peptide-induced microvascular leakage in lung. […] Mice treated with PAR-1 control peptide ([…]-NH2) was used as negative control. For Evan’s blue albumin extravasation, Evans’s blue-labeled albumin was administered at the same time as the PAR-1 AP. Vehicle-treated mice were used as treatment control.
Evans’ blue-labeled albumin extravasation. To evaluate vascular permeability in lung tissues, mice were injected intravenously with Evans' blue-labeled albumin (25 mg/kg) 30 minutes before the collection of lung tissues. The lungs were perfused via the right ventricle with warmed phosphate-buffered saline to remove intravascular dye, and the right atrium was excised to facilitate clearance. […] The optical density of the supernatant was measured spectrophotometrically at 620 nm (Evans Blue) and 740 nm (hemoglobin correction), with the dye content normalized to the wet weight of the lungs. Corrections for hemoglobin were made as follows: Corrected absorbance (Evans blue) = Absorbance (620) - (1.426 × Absorbance (740) + 0.03). […]

[2] = Lipophilicity of peptides, logP(oct/wat); assay type: physicochemical
How it was run: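 Shake-flask partition between n-octanol and phosphate buffer, each phase pre-saturated with the other; peptides dissolved in buffer, partitioned at several octanol:water ratios, shaken 1 h at room temperature. After equilibration both phases assayed for peptide; logP = log(octanol/water concentration ratio).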

[3] = Stability of selected EB3 inhibitors in human blood plasma; assay type: in vitro ADME
Procedure: Supplementary Table 3. Stability of selected EB3 inhibitors in human blood plasma. The indicated inhibitors were incubated with human plasma at 37 °C and samples were taken at the indicated time points. Plasma proteins were precipitated with ice-cold perchloric acid (60%); the concentration of compounds was measured in supernatant using a liquid chromatography-tandem mass spectrometry (LC-MS/MS). See also Figures 1 and 2.

[4] = Stability at various storage conditions; assay type: physicochemical; settings: for amount of peptide remaining after storage: phosphate-buffered sterile saline, 8 days, LC-MS/MS
Procedure: Stability assay of peptides in various storage conditions. Peptides were dissolved and stored in phosphate-buffered sterile saline at -20, 4, 37, and 60°C for 8 days. The amount of peptide remaining after the study was analyzed by LC-MS/MS.
Supplementary Table 5. Stability of selected compounds at various storage conditions. Preliminary accelerated storage stability at various temperature conditions for the selected inhibitors was tested in phosphate-buffered sterile saline at -20 °C, 4 °C, 37 °C and 60 °C for 8 days. See also Figures 1 and 2.

[5] = Aggregation / solubility at 1 mM; assay type: physicochemical; settings: summary calls it solubility at 1mM
How it was run: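 Solubility and aggregation of compounds were assessed experimentally at 1 mM. Lipophilicity was determined as octanol/water partition coefficient, logP(oct/wat).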

[6] = test system: human primary microvascular lung endothelial cells (HLMVECs); test: Peptide uptake in endothelial cells; assay type: cell-based
Procedure: We next analyzed the cell-penetrating properties of the selected compounds, hereafter referred to as vascular therapeutics (VT). The rate of uptake of 5’6-FAM (fluorescein)-labeled compounds by human primary microvascular lung endothelial cells (HLMVECs) was determined via confocal fluorescence live-cell imaging. FAM-labeled Myr-EBIN[13] and fluorescein alone were used as positive and negative controls, respectively. The t½ uptake and maximal uptake were determined from changes in the integrated fluorescence intensity over a 30 min period (Fig. 2a and Supplementary Fig. 1a). […] Like Myr-EBIN, compounds VT-107, -108 and -109 presented the highest uptake rates of 92.5 ± 5.0%, 82.5 ± 2.8% and 94.7 ± 4.9%, respectively, whereas the linear compound VT-101 was taken up less efficiently, with an average uptake of 58.4 ± 2.7% (Fig. 2a). […] The t½ uptake, however, varied between the tested compounds (Fig. 2b). The stapled compounds presented the shortest t½ uptake, whereas the linear compounds presented the longest t½ (Fig. 2b).
Peptide uptake in endothelial cells. The rate of peptide uptake by primary human microvascular endothelial cells was measured using 5’6FAM (fluorescein)-labeled peptides and confocal fluorescence live-cell imaging, with fluorescein alone used as a negative control. Changes in intracellular fluorescence for each peptide were monitored over time, and saponin, a detergent, was added at the end of the experiment to induce full uptake of the tested peptides by endothelial cells. The fluorescence intensity inside the cells was tracked over time, and the half-time uptake (t1/2) and maximum uptake were calculated.

[7] = target: EB3 interactions with IP3R3-GFP (Homo sapiens, UniProt Q9UPY8); test: Competitive binding: inhibition of EB3 interaction with IP3R3-GFP in vitro; assay type: biochemical; settings: 250 nM
Excerpt: We tested the efficacy of twenty-three compounds in inhibiting EB3 interactions with IP3R3-GFP via an in vitro approach developed by us[12],[13]. […] Guided by NMR studies, we predicted the binding pose of 109 to EB3 via AutoDock Vina[13],[24],[25].

Sequence of EB3 interactions with IP3R3-GFP (Q9UPY8 whole entry): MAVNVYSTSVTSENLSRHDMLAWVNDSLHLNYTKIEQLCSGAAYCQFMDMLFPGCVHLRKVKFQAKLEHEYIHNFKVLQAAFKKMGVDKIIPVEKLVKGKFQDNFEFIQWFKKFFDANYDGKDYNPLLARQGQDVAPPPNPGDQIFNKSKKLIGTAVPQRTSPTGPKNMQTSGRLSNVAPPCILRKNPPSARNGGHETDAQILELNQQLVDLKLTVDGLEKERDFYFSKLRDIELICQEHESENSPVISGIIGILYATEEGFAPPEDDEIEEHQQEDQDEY

Structure (SMILES) | PAR-1-mediated capillary leakage in the lung (EBA extravasation) [1] | logD [2] | remaining at 1.5 h ([3]; human, plasma) [%] | remaining at 20 h ([3]; human, plasma) [%] | storage stability [4] | Aggregation at 1mM [5] | half-time uptake t1/2 [6] [min] | penetration of the cell membrane [6] | inhibition at 0.25 µM [7] [%] | logD ([2]; shake-flask n-octanol/phosphate buffer, mutually saturated, shaken 1 hour at room temperature, read-out: Log P (Octanol/Water)) | remaining at 1.5 h ([3]; human plasma, 37 °C, 1.5 hr, perchloric acid (60%) precipitation, LC-MS/MS, read-out: compound remaining in human plasma) [%] | remaining at 20 h ([3]; human plasma, 37 °C, 20 hr, perchloric acid (60%) precipitation, LC-MS/MS, read-out: compound remaining in human plasma) [%] | amount of peptide remaining after storage ([4]; 4 °C) [%] | amount of peptide remaining after storage ([4]; 37 °C) [%] | amount of peptide remaining after storage ([4]; 60 °C) [%] | amount of peptide remaining after storage ([4]; -20 °C) [%] | storage stability ([4]; various storage and temperature conditions) | uptake, percentage of the maximal values obtained following saponin treatment ([6]; 5’6-FAM-labeled compounds, HLMVECs, confocal live-cell imaging over 30 min, mean ± SEM, n = 16–45 cells per group) [%] | half-time uptake t1/2 ([6]; 5’6-FAM-labeled compounds, HLMVECs, confocal live-cell imaging, n = 3 independent experiments) [min] | penetration of the cell membrane ([6]; 5’6-FAM-labeled compounds, HLMVECs, no cell internalization signal)
CC(C)(C)C[C@@H]1NC(=O)C[C@@H](O)CNC(=O)[C@@H]2C[C@@H]3CCCC[C@@H]3N2C(=O)[C@H](CC(C)(C)C)NC(=O)c2ccc(cc2)CNC(=O)C(C(C)(C)O)NC(=O)[C@@H](Cc2ccccc2)NC1=O (stereo partly drawn) [compound 109, (1^2S,1^3aS,1^7aS,3S,10S,13R,16S,20R)-13-benzyl-20-hydroxy-10-(2-hydroxypropan-2-yl)-3,16-dineopentyl-1^2,1^3,1^3a,1^4,1^5,1^6,1^7,1^7a-octahydro-1^1H-4,8,11,14,17,22-hexaaza-1(1,2)-indola-6(1,4)-benzenacyclotricosaphane-2,5,9,12,15,18,23-heptaone.] (cyclo([4Amb][tBuAla][Oic][GABOB(3R)][tBuAla][dF][ξVal(3-OH)])) | completely blocked | 0.73 | 90 | 91 | stable | weak signal | 3.42 ± 0.01 | able to penetrate the cell membrane without the addition of a cell internalization signal | 58 |  |  |  |  |  |  |  |  |  |  | 
CC(C)(C)C[C@@H]1NC(=O)[C@](C)(NC(=O)c2ccc(CNC(=O)[C@H](N)C(C)(C)O)cc2)CCC/C=C\CCCC[C@@](C)(C(=O)N[C@H](CC(C)(C)C)C(=O)O)NC(=O)CC(O)CNC(=O)[C@@H]2C[C@@H]3CCCC[C@@H]3N2C1=O (stereo partly drawn) [compound 108, (2R)-2-((8S,18R,21S,23aS,27aS,28aS,Z)-18-(4-(((R)-2-amino-3-hydroxy-3-methylbutanamido)methyl)benzamido)-4-hydroxy-8,18-dimethyl-21-neopentyl-1,6,19,22-tetraoxo-1,2,3,4,5,6,7,8,9,10,11,12,15,16,17,18,19,20,21,22,23a,24,25,26,27,27a,28,28a-octacosahydro-[1,4,7,12]tetraazacyclotetracosino[4,5-a]indole-8-carboxamido)-4,4-dimethylpentanoic acid] (H-[dVal(3-OH)][4Amb][R5][tBuAla][Oic][X1][X2][d(tBuAla)]-OH; staple (Z) 3-7) | completely blocked |  |  |  |  | weak signal |  |  | 55 | 0.46 | 80 | 65 | 102 | 104 | 104 | 104 | stable | 82.5 ± 2.8 | 0.36 ± 0.12 | able to penetrate the cell membrane without the addition of a cell internalization signal
